# Source: ChEMBL document CHEMBL1944551, “An integrated computational workflow for efficient and quantitative modeling of renin inhibitors” (Bioorg Med Chem, 2012)
# Experiment: physchem
# Settings: octanol/buffer
row,SMILES,logP
1,COc1ccccc1COCCCOc1ccc(N2C(=O)CNC[C@@H]2C(=O)N(Cc2cccc(Cl)c2)C2CC2)cc1,5.1
2,O=C(NCc1ccccc1)[C@H]1CNCC(=O)N1c1ccc(CCCOc2c(F)ccc(F)c2F)cc1,4.29
3,Cc1cc(Cl)c(OCCOc2ccc(N3C(=O)CNC[C@@H]3C(=O)NCc3ccccc3Cl)cn2)c(Cl)c1,4.15
4,COc1ccccc1COCCCOc1ncc(N2C(=O)CNC[C@@H]2C(=O)N(C)CCCc2ccccc2)cn1,2.34
5,CN(CCCc1ccccc1)C(=O)[C@H]1CNCC(=O)N1c1ccc(CCCOc2c(F)ccc(F)c2F)cc1,5.01
6,COCCc1ccc(Cl)c(CN(C(=O)[C@H]2CNCC(=O)N2c2ccc(OCCOc3c(Cl)cc(C)cc3Cl)cc2)C2CC2)c1,6.05
7,CNCCc1ccc(Cl)c(CN(C(=O)[C@H]2CNCC(=O)N2c2ccc(OCCCOCc3ccccc3OC)cc2)C2CC2)c1,4.97
8,CN(CCCc1ccccc1)C(=O)[C@H]1CNCC(=O)N1c1ccc(OCCCOCc2ccccc2)cc1,4.39
9,O=C([C@H]1CNCC(=O)N1c1ccc(CCCOc2cccc(Cl)c2)cc1)N(Cc1cccc(Cl)c1Cl)C1CC1,6.49
10,COc1ccccc1COCCCOc1ncc(N2C(=O)CNC[C@@H]2C(=O)N(Cc2cc(CNC(=O)C3CC3)ccc2Cl)C2CC2)cn1,2.86
11,COc1ccccc1COCCCOc1ncc(N2C(=O)CNC[C@@H]2C(=O)N(Cc2cc(CCNC(=O)CC(F)(F)F)ccc2Cl)C2CC2)cn1,3.32
12,CC(=O)NCCc1ccc(Cl)c(CN(C(=O)[C@H]2CNCC(=O)N2c2ccc(OCCOc3c(Cl)cc(C)cc3Cl)cc2)C2CC2)c1,5.38
13,COc1ccccc1COCCCOc1ccc(N2C(=O)CNC[C@@H]2C(=O)NCc2ccccc2)cc1,3.62
14,Cc1cc(Cl)c(OCCOc2ccc(N3C(=O)CNC[C@@H]3C(=O)N(Cc3cc(CC(=O)NC4CC4)ccc3Cl)C3CC3)cn2)c(Cl)c1,5.08
15,COCCCc1ccc(Cl)c(CN(C(=O)[C@H]2CNCC(=O)N2c2ccc(CCCOc3c(F)ccc(F)c3F)cc2)C2CC2)c1,6.39
16,CNC(=O)OCCc1ccc(Cl)c(CN(C(=O)[C@H]2CNCC(=O)N2c2ccc(OCCOc3c(Cl)cc(C)cc3Cl)cc2)C2CC2)c1,5.67
17,CN(CCCc1ccccc1)C(=O)[C@H]1CNCC(=O)N1c1ccc(CCCOc2cccc(Cl)c2)cc1,5.19
18,O=C([C@H]1CNCC(=O)N1c1ccc(CCCOc2c(F)ccc(F)c2F)cc1)N(Cc1cc(CCNC2CC2)ccc1Cl)C1CC1,6.29
19,Cc1cccc(CN(C(=O)[C@H]2CNCC(=O)N2c2ccc(CCCOc3cccc(Cl)c3)cc2)C2CC2)c1C,5.91
20,COc1c(CN(C(=O)[C@H]2CNCC(=O)N2c2ccc(OCCCOCc3ccccc3)cc2)C2CC2)ccnc1C,3.49
21,Cc1cc(Cl)c(OCCOc2ccc(N3C(=O)CNC[C@@H]3C(=O)N(Cc3cc(CCNC(=O)CC(F)(F)F)ccc3Cl)C3CC3)cn2)c(Cl)c1,5.28
22,CNC(=O)CCc1ccc(Cl)c(CN(C(=O)[C@H]2CNCC(=O)N2c2ccc(OCCOc3c(Cl)cc(C)cc3Cl)nc2)C2CC2)c1,4.52
23,COc1ccccc1COCCCOc1ncc(N2C(=O)CNC[C@@H]2C(=O)N(Cc2cc(CCNC3CC3)ccc2Cl)C2CC2)cn1,3.61
24,CC(C)(C)OCC(=O)NCCc1ccc(Cl)c(CN(C(=O)[C@H]2CNCC(=O)N2c2ccc(CCCOc3c(F)ccc(F)c3F)cc2)C2CC2)c1,6.28
25,COc1ccccc1COCCCOc1ccc(N2C(=O)CNC[C@@H]2C(=O)N(Cc2ccccc2Cl)C2CC2)cc1,5.06

# The next lines start with the values.
row,logP,SMILES
1,5,CCC(=O)NCc1ccc(Cl)c(CN(C(=O)[C@H]2CNCC(=O)N2c2ccc(OCCCOCc3ccccc3OC)cc2)C2CC2)c1
2,4.28,CC(=O)NCCc1ccc(Cl)c(CN(C(=O)[C@H]2CNCC(=O)N2c2ccc(COC(=O)c3ccccc3)cc2)C2CC2)c1
3,5.14,COc1ccccc1COCCCOc1ccc(N2C(=O)CNC[C@@H]2C(=O)N(Cc2cc(CC(=O)NC3CC3)ccc2Cl)C2CC2)cc1
4,4.94,COC(=O)NCCc1ccc(Cl)c(CN(C(=O)[C@H]2CNCC(=O)N2c2ccc(OCCCOCc3ccccc3)cc2)C2CC2)c1
5,5.48,CNC(=O)OCc1ccc(Cl)c(CN(C(=O)[C@H]2CNCC(=O)N2c2ccc(CCCOc3c(F)ccc(F)c3F)cc2)C2CC2)c1
6,5.91,O=C(CC(F)(F)F)NCc1ccc(Cl)c(CN(C(=O)[C@H]2CNCC(=O)N2c2ccc(CCCOc3c(F)ccc(F)c3F)cc2)C2CC2)c1
7,4.24,CNC(=O)CCc1ccc(Cl)c(CN(C(=O)[C@H]2CNCC(=O)N2c2ccc(COC(=O)c3ccccc3)cc2)C2CC2)c1
8,5.45,CC(=O)NCCc1ccc(Cl)c(CN(C(=O)[C@H]2CNCC(=O)N2c2ccc(CCCOc3cccc(Cl)c3)cc2)C2CC2)c1
9,4.94,CNC(=O)OCCc1ccc(Cl)c(CN(C(=O)[C@H]2CNCC(=O)N2c2ccc(OCCCOCc3ccccc3)cc2)C2CC2)c1
10,4.57,CC(=O)NCc1ccc(Cl)c(CN(C(=O)[C@H]2CNCC(=O)N2c2ccc(OCCCOCc3ccccc3)cc2)C2CC2)c1
11,5.76,COCCCc1ccc(Cl)c(CN(C(=O)[C@H]2CNCC(=O)N2c2ccc(OCCCOCc3ccccc3)cc2)C2CC2)c1
12,6.2,O=C([C@H]1CNCC(=O)N1c1ccc(CCCOc2c(F)ccc(F)c2F)cc1)N(Cc1cc(CNC2CC2)ccc1Cl)C1CC1
13,4.73,O=C(OCc1ccc(N2C(=O)CNC[C@@H]2C(=O)N(Cc2ccc(Cl)cc2)C2CC2)cc1)c1ccccc1
14,5.38,O=C(CC(F)(F)F)NCCc1ccc(Cl)c(CN(C(=O)[C@H]2CNCC(=O)N2c2ccc(OCCCOCc3ccccc3)cc2)C2CC2)c1
15,4.9,CNC(=O)OCCc1ccc(Cl)c(CN(C(=O)[C@H]2CNCC(=O)N2c2ccc(OCCCOCc3ccccc3OC)cc2)C2CC2)c1
16,4.73,O=C(OCc1ccc(N2C(=O)CNC[C@@H]2C(=O)N(Cc2ccccc2Cl)C2CC2)cc1)c1ccccc1
17,6.38,O=C([C@H]1CNCC(=O)N1c1ccc(CCCOc2cccc(Cl)c2)cc1)N(Cc1cc(CNC2CC2)ccc1Cl)C1CC1
18,5.24,CNC(=O)CCc1ccc(Cl)c(CN(C(=O)[C@H]2CNCC(=O)N2c2ccc(CCCOc3c(F)ccc(F)c3F)cc2)C2CC2)c1
19,4.57,CNC(=O)OCCc1ccc(Cl)c(CN(C(=O)[C@H]2CNCC(=O)N2c2ccc(COC(=O)c3ccccc3)cc2)C2CC2)c1
20,5.67,CCC(=O)NCc1ccc(Cl)c(CN(C(=O)[C@H]2CNCC(=O)N2c2ccc(CCCOc3c(F)ccc(F)c3F)cc2)C2CC2)c1
21,5.33,CNC(=O)Cc1ccc(Cl)c(CN(C(=O)[C@H]2CNCC(=O)N2c2ccc(CCCOc3cccc(Cl)c3)cc2)C2CC2)c1
22,3.58,CN(CCc1ccccc1)C(=O)[C@H]1CNCC(=O)N1c1ccc(COC(=O)c2ccccc2)cc1
23,4.85,COC(=O)NCc1ccc(Cl)c(CN(C(=O)[C@H]2CNCC(=O)N2c2ccc(OCCCOCc3ccccc3)cc2)C2CC2)c1
24,4.96,O=C(OCc1ccc(N2C(=O)CNC[C@@H]2C(=O)N(Cc2cc(CNCC(F)F)ccc2Cl)C2CC2)cc1)c1ccccc1
25,4.49,CCNC(=O)Cc1ccc(Cl)c(CN(C(=O)[C@H]2CNCC(=O)N2c2ccc(COC(=O)c3ccccc3)cc2)C2CC2)c1
26,4.57,CNC(=O)CCc1ccc(Cl)c(CN(C(=O)[C@H]2CNCC(=O)N2c2ccc(OCCCOCc3ccccc3OC)cc2)C2CC2)c1
27,5.34,O=C([C@H]1CNCC(=O)N1c1ccc(OCCCOCc2ccccc2)cc1)N(Cc1cc(CNCC(F)F)ccc1Cl)C1CC1
28,4.92,CNCc1ccc(Cl)c(CN(C(=O)[C@H]2CNCC(=O)N2c2ccc(OCCCOCc3ccccc3)cc2)C2CC2)c1
